Key:
Format in all cases: in vivo
[1] = test system: barnyardgrass (Echinochloa crus-galli); experiment: Test A pre-/postemergence plant response; settings: for Barnyardgrass plant response rating: visual injury, 0 to 100 scale (0 no effect, 100 complete control), approx. ten days
Procedure, shortened: (§1)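 Formulated test chemicals (non-phytotoxic solvent, surfactant) were sprayed onto soil right after planting and simultaneously onto young plants at one to two leaves, 2 to 10 cm tall. Plants stayed in the greenhouse about ten days; injury was then visually scored against untreated controls, from 0 (no effect) to 100 (complete control).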

corn (Zea mays) = experiment: Test A pre-/postemergence plant response; settings: for Corn plant response rating: visual injury, 0 to 100 scale (0 no effect, 100 complete control), approx. ten days
Procedure, shortened: as §1

[2] = test system: giant foxtail (Setaria faberii); experiment: Test A pre-/postemergence plant response
Procedure, shortened: as §1

[3] = test system: large crabgrass (Digitaria sanguinalis); experiment: Test A pre-/postemergence plant response; settings: for Crabgrass, Large plant response rating: visual injury, 0 to 100 scale (0 no effect, 100 complete control), approx. ten days
Procedure, shortened: as §1

[4] = test system: morningglory (Ipomoea spp.); experiment: Test A pre-/postemergence plant response
Procedure, shortened: as §1

[5] = test system: pigweed (Amaranthus retroflexus); experiment: Test A pre-/postemergence plant response
Procedure, shortened: as §1

[6] = test system: velvetleaf (Abutilon theophrasti); experiment: Test A pre-/postemergence plant response
Procedure, shortened: as §1

[7] = test system: wheat (Triticum aestivum); experiment: Test A pre-/postemergence plant response
Procedure, shortened: as §1

[8] = test system: canarygrass (Phalaris minor); experiment: Test B postemergence plant response; settings: Postemergence
Procedure, shortened: (§2)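 Plants at the 1- to 4-leaf stage (2 to 18 cm tall), grown in pots of peat moss/vermiculite medium with wetting agent and starter nutrients, received postemergence applications of test chemicals. After 13 to 15 days in a greenhouse, injury was rated visually against untreated controls on a 0 (no effect) to 100 (complete control) scale.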

[9] = test system: chickweed (Stellaria media); experiment: Test B postemergence plant response; settings: Postemergence
Procedure, shortened: as §2

[10] = test system: windgrass (Apera spica-venti); experiment: Test B postemergence plant response; settings: Postemergence
Procedure, shortened: as §2

[11] = test system: winter barley (Hordeum vulgare); experiment: Test B postemergence plant response; settings: Postemergence
Procedure, shortened: as §2

[12] = Postemergence, 125 g ai/ha, 0 to 100 scale where 0 is no effect and 100 is complete control
[13] = Preemergence, 125 g ai/ha, 0 to 100 scale where 0 is no effect and 100 is complete control, approximately ten days
[14] = Preemergence, 500 g ai/ha, 0 to 100 scale, 0 = no effect, 100 = complete control
[15] = Postemergence, 125 g ai/ha, visual injury, 0 to 100 scale (0 no effect, 100 complete control), approx. ten days
[16] = Postemergence, 500 g ai/ha, visual injury, 0 to 100 scale (0 no effect, 100 complete control), approx. ten days
[17] = 31 g ai/ha, 0 to 100 scale (0 no effect, 100 complete control)
[18] = 62 g ai/ha, scale 0 to 100 (0 no effect, 100 complete control)
[19] = 125 g ai/ha, scale 0 (no effect) to 100 (complete control), 13 to 15 days
[20] = 250 g ai/ha, scale 0 to 100 (0 no effect, 100 complete control), 13 to 15 days

CCCCn1c(-c2cc(F)cc(F)c2)ncc(C(=O)C2=C(O)C3CCC(C3)C2=O)c1=O (stereo not drawn) [Compound 245]
Plant response rating, Barnyardgrass [1, 12]: 90 | Barnyardgrass plant response rating ([1]; Postemergence, 500 g ai/ha): 100 | Plant response rating, Barnyardgrass [1, 13]: 40 | Plant response rating, Barnyardgrass [1, 14]: 100 | Plant response rating, Corn (corn (Zea mays); [12]): 40 | Corn plant response rating (corn (Zea mays); Postemergence, 500 g ai/ha): 90 | Plant response rating, Corn (corn (Zea mays); [13]): 0 | Plant response rating, Corn (corn (Zea mays); [14]): 20 | Plant response rating, Foxtail, Giant [2, 15]: 100 | Foxtail, Giant plant response rating [2, 16]: 100 | Plant response rating, Foxtail, Giant [2, 13]: 80 | Plant response rating, Foxtail, Giant [2, 14]: 90 | Plant response rating, Crabgrass, Large [3, 12]: 90 | Crabgrass, Large plant response rating ([3]; Postemergence, 500 g ai/ha): 90 | Plant response rating, Crabgrass, Large [3, 13]: 80 | Plant response rating, Crabgrass, Large [3, 14]: 100 | Plant response rating, Morningglory [4, 15]: 100 | Morningglory plant response rating [4, 16]: 100 | Plant response rating, Morningglory [4, 13]: 20 | Plant response rating, Morningglory [4, 14]: 60 | Plant response rating, Pigweed [5, 15]: 100 | Pigweed plant response rating [5, 16]: 100 | Plant response rating, Pigweed [5, 13]: 80 | Plant response rating, Pigweed [5, 14]: 90 | Plant response rating, Velvetleaf [6, 15]: 100 | Velvetleaf plant response rating [6, 16]: 100 | Plant response rating, Velvetleaf [6, 13]: 70 | Plant response rating, Velvetleaf [6, 14]: 100 | Plant response rating, Wheat [7, 15]: 40 | Wheat plant response rating [7, 16]: 80 | Plant response rating, Wheat [7, 13]: 0 | Plant response rating, Wheat [7, 14]: 20 | Plant response rating, Canarygrass [8, 17]: 80 | Plant response rating, Canarygrass [8, 18]: 95 | Plant response rating, Canarygrass [8, 19]: 100 | Plant response rating, Canarygrass [8, 20]: 100 | Plant response rating, Chickweed [9, 17]: 80 | Plant response rating, Chickweed [9, 18]: 85 | Plant response rating, Chickweed [9, 19]: 100 | Plant response rating, Chickweed [9, 20]: 100 | Plant response rating, Windgrass [10, 17]: 65 | Plant response rating, Windgrass [10, 18]: 70 | Plant response rating, Windgrass [10, 19]: 95 | Plant response rating, Windgrass [10, 20]: 98 | Plant response rating, Barley [11, 17]: 45 | Plant response rating, Barley [11, 18]: 85 | Plant response rating, Barley [11, 19]: 85 | Plant response rating, Barley [11, 20]: 95

CCc1ccccc1-n1c(-c2ccccc2)ncc(C(=O)C2=C(O)CCCC2=O)c1=O [Compound 255]
Plant response rating, Barnyardgrass [1, 12]: 90 | Barnyardgrass plant response rating ([1]; Postemergence, 500 g ai/ha): 100 | Plant response rating, Barnyardgrass [1, 13]: 10 | Plant response rating, Barnyardgrass [1, 14]: 100 | Plant response rating, Corn (corn (Zea mays); [12]): 30 | Corn plant response rating (corn (Zea mays); Postemergence, 500 g ai/ha): 70 | Plant response rating, Corn (corn (Zea mays); [13]): 0 | Plant response rating, Corn (corn (Zea mays); [14]): 0 | Plant response rating, Foxtail, Giant [2, 15]: 90 | Foxtail, Giant plant response rating [2, 16]: 90 | Plant response rating, Foxtail, Giant [2, 13]: 0 | Plant response rating, Foxtail, Giant [2, 14]: 50 | Plant response rating, Crabgrass, Large [3, 12]: 90 | Crabgrass, Large plant response rating ([3]; Postemergence, 500 g ai/ha): 100 | Plant response rating, Crabgrass, Large [3, 13]: 20 | Plant response rating, Crabgrass, Large [3, 14]: 90 | Plant response rating, Morningglory [4, 15]: 100 | Morningglory plant response rating [4, 16]: 100 | Plant response rating, Morningglory [4, 13]: 40 | Plant response rating, Morningglory [4, 14]: 60 | Plant response rating, Pigweed [5, 15]: 90 | Pigweed plant response rating [5, 16]: 100 | Plant response rating, Pigweed [5, 13]: 70 | Plant response rating, Pigweed [5, 14]: 90 | Plant response rating, Velvetleaf [6, 15]: 100 | Velvetleaf plant response rating [6, 16]: 100 | Plant response rating, Velvetleaf [6, 13]: 60 | Plant response rating, Velvetleaf [6, 14]: 100 | Plant response rating, Wheat [7, 15]: 10 | Wheat plant response rating [7, 16]: 50 | Plant response rating, Wheat [7, 13]: 0 | Plant response rating, Wheat [7, 14]: 0 | Plant response rating, Canarygrass [8, 17]: 50 | Plant response rating, Canarygrass [8, 18]: 50 | Plant response rating, Canarygrass [8, 19]: 50 | Plant response rating, Canarygrass [8, 20]: 60 | Plant response rating, Chickweed [9, 17]: 95 | Plant response rating, Chickweed [9, 18]: 98 | Plant response rating, Chickweed [9, 19]: 100 | Plant response rating, Chickweed [9, 20]: 100 | Plant response rating, Windgrass [10, 17]: 50 | Plant response rating, Windgrass [10, 18]: 80 | Plant response rating, Windgrass [10, 19]: 80 | Plant response rating, Windgrass [10, 20]: 95 | Plant response rating, Barley [11, 17]: 30 | Plant response rating, Barley [11, 18]: 35 | Plant response rating, Barley [11, 19]: 35 | Plant response rating, Barley [11, 20]: 50

— US8952024B2, “Herbicidal pyrimidone derivatives” (E I du Pont de Nemours and Company, priority 2009, dated 2015)
